Measurements: ChEMBL document CHEMBL2311474, “Chiral 6,7-bis(hydroxymethyl)-1H,3H-pyrrolo[1,2-c]thiazoles with anti-breast cancer properties” (Eur J Med Chem, 2013)

Columns and labels:
[1] = Cytotoxicity against human HFF1 cells after 96 hrs by MTT assay; assay type: cell-based; conditions: HFF-1, 96 h
MCF7 [2] = experiment: Cytotoxicity against human MCF7 cells after 48 hrs by MTT assay; assay type: functional, cell-based; conditions: MCF7, 48 h
MCF7 [3] = experiment: Cytotoxicity against human MCF7 cells after 24 hrs by MTT assay; assay type: functional, cell-based; conditions: MCF7, 24 h
MCF7 [4] = experiment: Cytotoxicity against human MCF7 cells after 72 hrs by MTT assay; assay type: functional, cell-based; conditions: MCF7, 72 h
MCF7 [5] = experiment: Cytotoxicity against human MCF7 cells after 96 hrs by MTT assay; assay type: functional, cell-based; conditions: MCF7, 96 h

Row | Structure (SMILES) | IC50 [1] [µM] | IC50 (MCF7 [2]) [µM] | IC50 (MCF7 [3]) [µM] | IC50 (MCF7 [4]) [µM] | IC50 (MCF7 [5]) [µM]
1 | Cc1c(CO)cc2n1[C@@H](c1ccccc1)SC2 | 154 | – | – | – | –
2 | Cc1cc(CO)c2n1[C@@H](c1ccccc1)SC2 | 104 | – | – | – | –
3 | Cc1c(COC(=O)NCc2ccccc2)cc2n1[C@@H](c1ccccc1)SC2 | 48.2 | – | – | – | –
4 | OCc1c(CO)c(-c2ccccc2)n2c1CS[C@@H]2c1ccccc1 | – | 61.8 | 92.6 | 52.1 | 70.2
5 | OCc1c(CO)c(-c2ccc(F)cc2)n2c1CS[C@@H]2c1ccccc1 | – | 46.3 | 56.7 | 44.6 | 26.4
6 | Cc1c(CO)c(CO)c2n1[C@H](c1ccccc1)SC2 | – | 0.54 | 1.75 | 0.54 | 0.3
7 | Cc1c(CO)cc2n1CSC2 | – | 156 | 186 | 192 | 82.3
8 | Cc1cc(CO)c2n1CSC2 | – | 54.7 | 75.9 | 40.9 | 44.6
9 | Cc1c(CO)c(CO)c2n1CSC2 | – | 38.1 | 37.8 | 22.6 | 21.5
10 | COc1cc([C@H]2SCc3c(CO)c(CO)c(C)n32)cc(OC)c1OC | – | 127 | > 200 | 54.5 | 59.9
11 | OCc1cn2c(c1CO)CS[C@@H]2c1ccccc1 | – | 19.4 | 70.8 | – | –
12 | OCc1cn2c(c1CO)CS[C@@H]2c1cccnc1 | – | 128 | > 200 | 61.7 | 30.6
